What all share (assay type): cell-based
Assay [1] concerns T-Rex 293 cells having increased expression of estrogen receptor alpha protein. The assay is described as follows: Cellular growth inhibition assay, T-Rex 293 cells, (+) doxycycline. Conditions: T-REx-293, 72 h, Table 7-A; T-Rex 293 cells with doxycycline (increased ERα expression); 72 hours; CellTiter-Glo; read-out: (+) Dox GI50. Summed up:
(§1)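 Growth of a doxycycline-inducible ERα T-Rex 293 clone, induced or not with 3 ng/mL doxycycline, was followed for 72 h with test compound in hormone-depleted medium. CellTiter-Glo luminescence gave GI50.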
For orientation: ATP-based viability assays read luminescence as a measure of living cells.

Assay [2] concerns T-Rex 293 cells lacking increased expression of estrogen receptor alpha protein. The assay is described as follows: Cellular growth inhibition assay, T-Rex 293 cells, (−) doxycycline. Conditions: T-REx-293, 72 h, Table 7-A; T-Rex 293 cells without doxycycline (lacking increased ERα expression); 72 hours; CellTiter-Glo; read-out: (−) Dox GI50. Summed up: as §1
Assay [3] deals with MCF7 cells (ATCC #HTB-22). The experiment in a line: Cellular growth inhibition assay, MCF7 cells purchased from ATCC. Conditions: Homo sapiens, MCF7, 144 h, Table 8-A; MCF7 cells purchased from ATCC; six days; CellTiter-Glo; read-out: GI50. The method in brief:
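GI50 values come from a four-parameter fit of CellTiter-Glo 2.0 luminescence after six days of compound exposure at 37° C. Seeding density depended on the source: 225 cells/well for ECACC MCF7, 1,500 for ATCC. Medium was RPMI 1640 with 10% FBS and 0.2 U/ml insulin.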

GI50 data for 30 molecules are collected here from US12558428B2, “Heterobifunctional compounds and their use in treating disease” (Halda Therapeutics OpCo, Inc., priority 2024, dated 2026).

In the case of `Cc1sc2c(c1C)C(c1ccc(N3CC(CC4CCN(CC5CN(c6ccc([C@@H]7c8ccc(O)cc8CC[C@@H]7c7ccccc7)cc6)C5)CC4)C3)cc1)=N[C@@H](C)c1nnc(C)n1-2` [III-131], the GI50 (as a rule, the concentration that inhibits growth by half) was less than 50 nM in assay [1], 500 to 2500 nM in assay [2] and 50 to 500 nM in assay [3].

On to `Cc1sc2c(c1C)C(c1ccc(N3CCC(CN4CCC(c5ccc([C@@H]6c7ccc(O)cc7CC[C@@H]6c6ccccc6)cc5)CC4)CC3)cc1)=N[C@@H](C)c1nnc(C)n1-2` [III-132], for which the GI50 in assay [1] is 50 to 500 nM; in assay [2], 500 to 2500 nM; in assay [3] it was 50 to 500 nM.

Turning to `Cc1sc2c(c1C)C(c1ccc(N3CC(CN4CCC(CC5CN(c6ccc([C@@H]7c8ccc(O)cc8CC[C@@H]7c7ccccc7)cc6)C5)CC4)C3)cc1)=N[C@@H](C)c1nnc(C)n1-2` [III-133], the GI50 is less than 50 nM in assay [1], 50 to 500 nM in assay [2] and 50 to 500 nM in assay [3].

Regarding `Cc1sc2c(c1C)C(c1ccc(N3CC(C(=O)N4CCC(CC5CN(c6ccc([C@@H]7c8ccc(O)cc8CC[C@@H]7c7ccccc7)cc6)C5)CC4)C3)cc1)=N[C@@H](C)c1nnc(C)n1-2` [III-134], the GI50 in assay [1] was less than 50 nM; in assay [2] it was 50 to 500 nM; in assay [3], less than 50 nM.

Take `Cc1sc2c(c1C)C(c1ccc(N3CC(CC4CCN(C(=O)C5CN(c6ccc([C@@H]7c8ccc(O)cc8CC[C@@H]7c7ccccc7)cc6)C5)CC4)C3)cc1)=N[C@@H](C)c1nnc(C)n1-2` [III-135]: the GI50 is less than 50 nM in assay [1], 500 to 2500 nM in assay [2] and less than 50 nM in assay [3].

In the case of `Cc1sc2c(c1C)C(c1ccc(N3CC(CN4CCN(CC5CN(c6ccc([C@H]7c8ccc(O)cc8CC[C@H]7c7ccccc7)cc6)C5)CC4)C3)cc1)=N[C@H](C)c1nnc(C)n1-2` [III-136], the 50% growth inhibitory concentration (GI50) in assay [1], in assay [2] and in assay [3] was more than 2500 nM each time.

Take `Cc1sc2c(c1C)C(c1ccc(CC(=O)N3CCC4(CCN(c5ccc([C@@H]6c7ccc(O)cc7CC[C@@H]6c6ccccc6)cc5)CC4)C3)cc1)=N[C@@H](C)c1nnc(C)n1-2` [III-137]: the GI50 lay within 500 to 2500 nM in assay [1], 500 to 2500 nM in assay [2] and 50 to 500 nM in assay [3].

On to `Cc1sc2c(c1C)C(c1ccc(N3CC(CC4CCN(c5ccc([C@@H]6c7ccc(O)cc7CC[C@@H]6c6ccccc6)cc5)CC4)C3)cc1)=N[C@@H](C)c1nnc(C)n1-2` [III-138], for which the GI50 in assay [1] is 500 to 2500 nM; in assay [2], more than 2500 nM; in assay [3], 500 to 2500 nM.

On to `Cc1sc2c(c1C)C(c1ccc(N3CC(C(=O)N4CCC(c5ccc([C@@H]6c7ccc(O)cc7CC[C@@H]6c6ccccc6)cc5)CC4)C3)cc1)=N[C@@H](C)c1nnc(C)n1-2` [III-139], for which the GI50 in assay [1] was in the range of 500 to 2500 nM; in assay [2], 500 to 2500 nM; in assay [3] it was 50 to 500 nM.

As to `Cc1sc2c(c1C)C(c1ccc(N3CCC(O)(CN4CCC(c5ccc([C@@H]6c7ccc(O)cc7CC[C@@H]6c6ccccc6)cc5)CC4)CC3)cc1)=N[C@@H](Cc1ncco1)c1nnc(C)n1-2` [III-140], the GI50 is 50 to 500 nM in assay [1], 500 to 2500 nM in assay [2] and less than 50 nM in assay [3].

For `Cc1sc2c(c1C)C(c1ccc(C3CN(CC4CCN(c5ccc([C@@H]6c7ccc(O)cc7CC[C@@H]6c6ccccc6)cc5)CC4)C3)cc1)=N[C@@H](C)c1nnc(C)n1-2` [III-141], the GI50 was 50 to 500 nM in assay [1], 500 to 2500 nM in assay [2] and 50 to 500 nM in assay [3].

For the molecule `Cc1sc2c(c1C)C(c1ccc(C3CN(C(=O)C4CCN(c5ccc([C@@H]6c7ccc(O)cc7CC[C@@H]6c6ccccc6)cc5)CC4)C3)cc1)=N[C@@H](C)c1nnc(C)n1-2` [III-142], the GI50 in assay [1], in assay [2] and in assay [3] was 50 to 500 nM each time.

Regarding `Cc1sc2c(c1C)C(c1ccc(N3CCC(O)(CN4CCN(c5ccc([C@@H]6c7ccc(O)cc7CC[C@@H]6c6ccccc6)cc5)CC4)CC3)cc1)=N[C@@H](Cc1ncco1)c1nnc(C)n1-2` [III-143], the GI50 in assay [1], in assay [2] and in assay [3] was more than 2500 nM throughout.

On to `Cc1sc2c(c1C)C(c1ccc(N3CCC(F)(CN4CCC(c5ccc([C@@H]6c7ccc(O)cc7CC[C@@H]6c6ccccc6)cc5)CC4)CC3)cc1)=N[C@@H](C)c1nnc(C)n1-2` [III-144], for which the results for the GI50 in assay [1], in assay [2] and in assay [3] were 50 to 500 nM, more than 2500 nM and 500 to 2500 nM, respectively.

As to `Cc1sc2c(c1C)C(c1ccc(N3CCC(C)(CN4CCC(c5ccc([C@@H]6c7ccc(O)cc7CC[C@@H]6c6ccccc6)cc5)CC4)CC3)cc1)=N[C@@H](C)c1nnc(C)n1-2` [III-145], the GI50 in assay [1] lay within 500 to 2500 nM; in assay [2] it was 500 to 2500 nM; in assay [3], 50 to 500 nM.

Turning to `Cc1sc2c(c1C)C(c1ccc(N3CC(CN4CCN(CC5CN(c6ccc([C@@H]7c8ccc(O)cc8CC[C@@H]7c7ccccc7)cc6)C5)CC4)C3)cc1)=N[C@H](C)c1nnc(C)n1-2` [III-146], the GI50 in assay [1] was 500 to 2500 nM; in assay [2], 500 to 2500 nM; in assay [3] it was less than 50 nM.

Turning to `Cc1sc2c(c1C)C(c1ccc(N3CC(CN4CCN(CC5CN(c6ccc([C@H]7c8ccc(O)cc8CC[C@H]7c7ccccc7)cc6)C5)CC4)C3)cc1)=N[C@@H](C)c1nnc(C)n1-2` [III-147], the GI50 in assay [1], in assay [2] and in assay [3] was 50 to 500 nM throughout.

Turning to `Cc1sc2c(c1C)C(c1ccc(N3CC(CN4CCC(c5ccc([C@@H]6c7ccc(O)cc7CC[C@@H]6c6ccccc6)cc5)CC4)C3)cc1)=N[C@@H](C)c1nnc(C)n1-2` [III-148], the GI50 in assay [1] is less than 50 nM; in assay [2], 500 to 2500 nM; in assay [3], less than 50 nM.

On to `Cc1sc2c(c1C)C(c1ccc(N3CCC(C(=O)N4CCN(c5ccc([C@@H]6c7ccc(O)cc7CC[C@@H]6c6ccccc6)cc5)CC4)CC3)cc1)=N[C@@H](Cc1ncco1)c1nnc(C)n1-2` [III-149], for which the GI50 in assay [1] is less than 50 nM; in assay [2], 50 to 500 nM; in assay [3], less than 50 nM.

For the molecule `Cc1sc2c(c1C)C(c1ccc(N3CCC(C#N)(CN4CCN(c5ccc([C@@H]6c7ccc(O)cc7CC[C@@H]6c6ccccc6)cc5)CC4)CC3)cc1)=N[C@@H](C)c1nnc(C)n1-2` [III-150], the GI50 in assay [1] is less than 50 nM; in assay [2] it was 500 to 2500 nM; in assay [3], 50 to 500 nM.

For `Cc1sc2c(c1C)C(c1ccc(N3CC(CC4CCN(CC5(F)CN(c6ccc([C@@H]7c8ccc(O)cc8CC[C@@H]7c7ccccc7)cc6)C5)CC4)C3)cc1)=N[C@@H](C)c1nnc(C)n1-2` [III-151], the GI50 in assay [1] was less than 50 nM; in assay [2], more than 2500 nM; in assay [3] it was less than 50 nM.

Consider `Cc1sc2c(c1C)C(c1ccc(N3CCC(O)(CC4CCN(c5ccc([C@@H]6c7ccc(O)cc7CC[C@@H]6c6ccccc6)cc5)CC4)CC3)cc1)=N[C@@H](C)c1nnc(C)n1-2` [III-152], for which the GI50 was less than 50 nM in assay [1], 500 to 2500 nM in assay [2] and 50 to 500 nM in assay [3].

As for `Cc1sc2c(c1C)C(c1ccc(N3CCC(CC4(O)CCN(c5ccc([C@@H]6c7ccc(O)cc7CC[C@@H]6c6ccccc6)cc5)CC4)CC3)cc1)=N[C@@H](C)c1nnc(C)n1-2` [III-153], the results for the GI50 in assay [1], in assay [2] and in assay [3] were less than 50 nM, 500 to 2500 nM and 50 to 500 nM, respectively.

Consider `Cc1sc2c(c1C)C(c1ccc(N3CCC(O)(CC4CCN(c5ccc([C@@H]6c7ccc(O)cc7CC[C@@H]6c6ccccc6)cc5)CC4)CC3)cc1)=N[C@H](Cc1ncco1)c1nnc(C)n1-2` [III-154], for which the GI50 was more than 2500 nM in assay [1], more than 2500 nM in assay [2] and 50 to 500 nM in assay [3].

For `Cc1sc2c(c1C)C(c1ccc(N3CCC(O)(CC4CCN(c5ccc([C@@H]6c7ccc(O)cc7CC[C@@H]6c6ccccc6)cc5)CC4)CC3)cc1)=N[C@@H](Cc1ncco1)c1nnc(C)n1-2` [III-155], the GI50 in assay [1] was less than 50 nM; in assay [2], 50 to 500 nM; in assay [3], less than 50 nM.

In the case of `Cc1sc2c(c1C)C(c1ccc(C3CN(C(=O)C4CCN(c5ccc([C@@H]6c7ccc(O)cc7CC[C@@H]6c6ccccc6)cc5)CC4)C3)cc1)=N[C@@H](Cc1ncco1)c1nnc(C)n1-2` [III-156], the GI50 in assay [1], in assay [2] and in assay [3] was less than 50 nM throughout.

Regarding `Cc1sc2c(c1C)C(c1ccc(N3CC(F)(CN4CCC(CC5CN(c6ccc([C@@H]7c8ccc(O)cc8CC[C@@H]7c7ccccc7)cc6)C5)CC4)C3)cc1)=N[C@@H](C)c1nnc(C)n1-2` [III-157], the concentration for 50% growth inhibition (GI50) in assay [1] was less than 50 nM; in assay [2], 500 to 2500 nM; in assay [3], 50 to 500 nM.

Consider `Cc1sc2c(c1C)C(c1ccc(N3CC(CC4(O)CCN(c5ccc([C@@H]6c7ccc(O)cc7CC[C@@H]6c6ccccc6)cc5)CC4)C3)cc1)=N[C@@H](C)c1nnc(C)n1-2` [III-158], for which the GI50 was less than 50 nM in assay [1], 50 to 500 nM in assay [2] and less than 50 nM in assay [3].

Take `Cc1sc2c(c1C)C(c1ccc(N3CC(O)(CC4CCN(c5ccc([C@@H]6c7ccc(O)cc7CC[C@@H]6c6ccccc6)cc5)CC4)C3)cc1)=N[C@@H](C)c1nnc(C)n1-2` [III-159]: the concentration for 50% growth inhibition (GI50) in assay [1], in assay [2] and in assay [3] was less than 50 nM in each case.

As to `Cc1sc2c(c1C)C(c1ccc(N3CC(CN4CCN(C(=O)C5CN(c6ccc([C@@H]7c8ccc(O)cc8CC[C@@H]7c7ccccc7)cc6)C5)CC4)C3)cc1)=N[C@@H](C)c1nnc(C)n1-2` [III-160], the GI50 is less than 50 nM in assay [1], 50 to 500 nM in assay [2] and less than 50 nM in assay [3].
